Calls of active or inactive are those of the source. No cut-off for these calls is given here.
Columns and labels:
[1] = biological target: 3',5'-cyclic-AMP phosphodiesterase 4B (Homo sapiens, UniProt Q07343); experiment: Inhibition of human recombinant PDE4B2 assessed as decrease in cAMP hydrolysis preincubated with substrate prior to enzyme addition measured after 30 mins by colorimetric assay method
[2] = biological target: Beta-2 adrenergic receptor (Cavia porcellus, UniProt Q8K4Z4); experiment: Agonist activity at beta2-adrenoceptor in guinea pig trachea assessed as relaxation of histamine-induced precontracted tracheal rings
Chain of Beta-2 adrenergic receptor (Q8K4Z4 whole entry): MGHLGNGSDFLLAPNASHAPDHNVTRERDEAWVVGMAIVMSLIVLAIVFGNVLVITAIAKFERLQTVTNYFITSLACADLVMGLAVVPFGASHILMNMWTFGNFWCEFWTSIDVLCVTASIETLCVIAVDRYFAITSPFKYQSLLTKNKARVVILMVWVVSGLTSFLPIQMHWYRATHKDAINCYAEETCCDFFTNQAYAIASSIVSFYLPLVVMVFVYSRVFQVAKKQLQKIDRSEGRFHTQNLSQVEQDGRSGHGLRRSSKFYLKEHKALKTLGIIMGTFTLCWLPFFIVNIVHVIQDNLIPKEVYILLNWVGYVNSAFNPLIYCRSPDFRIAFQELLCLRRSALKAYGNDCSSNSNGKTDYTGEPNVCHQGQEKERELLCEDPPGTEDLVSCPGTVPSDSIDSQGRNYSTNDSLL

[3] = biological target: Beta-2 adrenergic receptor (Cavia porcellus) (UniProt Q8K4Z4); experiment: Agonist activity at beta2-adrenoceptor in guinea pig trachea assessed as relaxation of histamine-induced precontracted tracheal rings treated 10 mins after histamine and beta2-adrenoceptor antagonist, ICI 118,551 addition
Chain of Beta-2 adrenergic receptor (Cavia porcellus) (Q8K4Z4 whole entry, looked up): as the sequence (Q8K4Z4 whole entry) above

Chain of 3',5'-cyclic-AMP phosphodiesterase 4B (Q07343 whole entry): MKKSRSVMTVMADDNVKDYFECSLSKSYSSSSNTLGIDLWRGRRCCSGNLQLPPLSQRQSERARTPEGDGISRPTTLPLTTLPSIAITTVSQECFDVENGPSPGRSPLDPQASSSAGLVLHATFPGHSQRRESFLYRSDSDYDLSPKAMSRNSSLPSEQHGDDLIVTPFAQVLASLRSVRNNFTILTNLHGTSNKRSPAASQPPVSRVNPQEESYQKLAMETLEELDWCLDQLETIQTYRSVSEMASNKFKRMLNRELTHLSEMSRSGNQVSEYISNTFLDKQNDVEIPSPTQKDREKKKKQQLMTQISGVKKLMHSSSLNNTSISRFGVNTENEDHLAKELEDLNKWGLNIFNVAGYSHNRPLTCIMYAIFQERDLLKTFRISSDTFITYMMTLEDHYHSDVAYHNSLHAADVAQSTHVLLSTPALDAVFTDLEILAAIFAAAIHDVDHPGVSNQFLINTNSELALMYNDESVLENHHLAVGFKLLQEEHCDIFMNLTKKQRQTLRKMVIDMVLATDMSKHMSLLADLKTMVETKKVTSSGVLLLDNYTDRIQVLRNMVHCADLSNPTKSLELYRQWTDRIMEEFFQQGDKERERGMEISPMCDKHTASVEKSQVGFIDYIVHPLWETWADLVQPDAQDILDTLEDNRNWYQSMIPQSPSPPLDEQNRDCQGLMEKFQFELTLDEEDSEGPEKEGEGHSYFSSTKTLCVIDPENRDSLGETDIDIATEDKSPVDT

Row | Compound | IC50 [1] | EC50 [2] | Activity [3]
1 | COc1ccc(C(=O)Nc2c(Cl)cncc2Cl)cc1OCCCCCNCC(O)c1ccc(O)c(CO)c1 (centres undefined) | 394 nM | 1.95 nM | 
2 | COc1ccc(C(=O)Nc2c(Cl)cncc2Cl)cc1OCCCCNCC(O)c1ccc(O)c(CO)c1 (centres undefined) | 601 nM | 2.82 nM | 
3 | COc1ccc(C(=O)Nc2c(Cl)cncc2Cl)cc1OCCCNCC(O)c1ccc(O)c(CO)c1 (centres undefined) | 1090 nM | 3.39 nM | 
4 | COc1ccc(C2=NN(CCCCCNCC(O)c3ccc(O)c(CO)c3)C(=O)C3CCCCC23)cc1OC (centres undefined) | 271 nM | 0.832 nM | 
5 | COc1ccc(C(=O)Nc2c(Cl)cncc2Cl)cc1OCCCCCCNCC(O)c1ccc(O)c(CO)c1 (centres undefined) | 235 nM | 3.16 nM | inactive
6 | COc1ccc(C2=NN(CCCCCCNCC(O)c3ccc(O)c(CO)c3)C(=O)C3CCCCC23)cc1OC (centres undefined) | 263 nM | 0.631 nM | inactive
7 | COc1ccc(C2=NN(CCCCNCC(O)c3ccc(O)c(CO)c3)C(=O)C3CCCCC23)cc1OC (centres undefined) | 278 nM | 0.676 nM | 
8 | CC(C)NCC(O)c1ccc(O)c(O)c1 (centres undefined) [ISOPROTERENOL] |  | 28.8 nM | 
9 | COc1ccc(C2=NN(CCNCC(O)c3ccc(O)c(CO)c3)C(=O)C3CCCCC23)cc1OC (centres undefined) | 282 nM | 0.646 nM | 

— ChEMBL document CHEMBL2331273 (Bioorg Med Chem Lett, 2013)
